The test system of assay [1] is TCR-mediated tyrosine phosphorylation in Jurkat T cells. Put plainly: Anti-CD3 (TCR) induced tyrosine phosphorylation in Jurkat T cells, immunoblot. The assay is classed as cell-based. Conditions: 2-4 μM, 2 hours pretreatment, anti-CD3 stimulation. How it is done: (§1) Jurkat T cells were grown at 37° C. under an atmosphere of 5% CO2 in RPMI medium 1640 supplemented with 10% FBS. Cells were pretreated with different concentrations of TTN, TTN D-1, or TTM for 2 hours and stimulated with […] anti-CD3 antibody (OKT3; eBioscience) for 5 min and 30 min, respectively. Subsequently, cells were spinned down at 2000 rpm in 4° C., and cell pellets were lysed in 50 mM Tris-HCl (pH 7.5), 150 mM NaCl, 10% glycerol, 1% NP-40, 50 mM NaF, 10 mM pyrophosphate, 5 mM idoacetate, 1 mM sodium orthovanadate, and the protease inhibitor mixture. After 30 min lysing on ice, the cell lysates were centrifuged at 13,200 rpm for 15 min. Total cellular proteins were separated by SDS/PAGE and transferred electrophoretically to nitrocellulose membrane, which was immunoblotted by appropriate antibodies followed by incubation with HRP-conjugated secondary antibodies. Blots were developed using Pierce Pico ECL reagent (Thermo) according to the manufacturer's instructions.
(§2) TTN induces immunosuppression by suppression of TCR-mediated tyrosine phosphorylation and ERK1/2 activity in T cells (Shim et al., 2002). However, the mechanism of action for TTN's ability to block TCR signaling remains undefined. […]

Assay [2] concerns TCR-mediated ERK1/2 activation in Jurkat T cells. Put plainly: Anti-CD3 (TCR) induced ERK1/2 activation in Jurkat T cells, immunoblot. To be noted: 2 hours pretreatment, anti-CD3 stimulation. The assay is classed as cell-based. As to the method:
as §1, §2

The next assay deals with T1, SHP2 (Homo sapiens, UniProt Q06124).
T1 construct: The expression and purification of the SHP2 catalytic domain (residues 262-528) were described previously; made in house
T1 sequence (Q06124 262-528): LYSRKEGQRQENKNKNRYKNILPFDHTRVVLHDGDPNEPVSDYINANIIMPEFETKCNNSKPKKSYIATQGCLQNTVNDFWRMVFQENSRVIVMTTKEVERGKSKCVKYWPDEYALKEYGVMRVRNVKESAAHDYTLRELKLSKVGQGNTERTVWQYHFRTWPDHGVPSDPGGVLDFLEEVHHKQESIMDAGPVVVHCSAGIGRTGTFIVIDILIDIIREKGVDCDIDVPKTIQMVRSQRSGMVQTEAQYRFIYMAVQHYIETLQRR
Put plainly: PTP activity assay with pNPP as substrate: SHP2. Format: biochemical.

A further assay deals with PP2A. To be noted: literature values; cited from earlier work.
Assay [3] deals with panel of PTPs (PTP1B, SHP1, SHP2, Lyp, HePTP, Meg2, FAP1, CD45, LAR, PTPα, VHR, VHX, Cdc14, low molecular weight PTP). Nature of the assay: Screen against a panel of PTPs at 10 μM compound (pNPP hydrolysis). Format: biochemical. Conditions: pH 7, 25° C. How it is done: The PTP activity was assayed using pNPP as a substrate at 25° C. in 50 mM 3,3-dimethylglutarate buffer, pH 7.0, containing 1 mM EDTA with an ionic strength of 0.15 M adjusted by NaCl. TTM, TTN and the engineered analogs were analyzed for inhibition of a panel of PTPs at 10 μM compound concentration. For each enzyme screened, test compounds were diluted to 20 μM in 100 μL and combined with 50 μL pNPP at a concentration of 4×Km. The reaction was initiated by the addition of 50 μL of 4× concentrated enzyme and pNPP was allowed to convert to the product p-nitrophenol. The reaction was quenched by the addition of 50 μL of 5N NaOH. Nonenzymatic hydrolysis of pNPP was corrected by measuring the control without the addition of enzyme. Production of p-nitrophenol was monitored by a Spectra MAX385 microplate spectrophotometer (Molecular Devices) at 405 nm using a molar extinction coefficient of 18,000 M^−1 cm^−1. IC50 values were calculated by fitting the absorbance at 405 nm versus inhibitor concentration to the following equation: AI/A0=IC50/(IC50+[I]) where AI is the absorbance at 405 nm of the sample in the presence of inhibitor; Ao is the absorbance at 405 nm in the absence of inhibitor; and [I] is the concentration of the inhibitor. […]

The subject of a further assay is PP1. Conditions: literature values; cited from earlier work.

With `CO[C@H]([C@H](O)CC(=O)[C@@H](C)[C@@H](O)CC[C@@H](C)[C@@H]1O[C@]2(CC[C@@H](C)[C@H](CC[C@H](C)C(C)=O)O2)CC[C@@H]1C)[C@H](OC(=O)C[C@@H](O)C1=C(C)C(=O)OC1=O)C(C)C` [TTM, tautomycin, reference compound], the “effect on TCR-mediated tyrosine phosphorylation” value in assay [1] is recorded as “had no effect”. The “effect on TCR-mediated ERK1/2 activation” value in assay [2] is on record as “no appreciable change”. Further, the “SHP2 inhibitory activity (in words)” value on SHP2 was “does not inhibit SHP2 activity”. Besides, the IC50 in the assay with PP2A and in the assay on PP1 was 22 to 32 nM throughout. Also, the “inhibitory activity against the panel of PTPs” value in assay [3] was “neither TTM nor its analogs exhibited any inhibitory activity”.
